“And” between values parts separate entries of the source, which are not always exact repeats. Equal values may be shown once. Read-outs that look alike come from different tables or passages of the source.
Assays:
[1] = target: T1, human Na+/taurocholate cotransporting polypeptide (NTCP) (Homo sapiens, UniProt Q14973); experiment: Inhibition kinetics of NTCP-mediated taurocholate transport in NTCP-expressing HEK293 cells; assay type: cell-based; conditions: for type of inhibition of NTCP-mediated taurocholate uptake: inhibition kinetics, best fit
T1 construct: containing the human NTCP open reading frame with a C-terminal 6-His tag; expressed in transfected cells
T1 sequence (Q14973 1-349): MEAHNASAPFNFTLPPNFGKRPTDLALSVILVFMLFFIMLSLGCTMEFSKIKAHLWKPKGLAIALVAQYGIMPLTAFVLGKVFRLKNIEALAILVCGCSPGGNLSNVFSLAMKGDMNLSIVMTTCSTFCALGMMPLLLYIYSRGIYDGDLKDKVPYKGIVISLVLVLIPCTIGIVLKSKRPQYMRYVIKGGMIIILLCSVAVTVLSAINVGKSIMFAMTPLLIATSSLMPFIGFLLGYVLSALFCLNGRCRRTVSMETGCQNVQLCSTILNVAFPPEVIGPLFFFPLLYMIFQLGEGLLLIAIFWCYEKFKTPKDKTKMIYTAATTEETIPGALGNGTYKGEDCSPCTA
Procedure: (§1) Flp-In™-293 (HEK293) cells were purchased from Thermo Fisher Scientific (Waltham, MA, USA) and grown at 37 °C in a humidified 5% CO2 atmosphere in Dulbecco’s Modified Eagle’s Medium (DMEM) obtained from the American Type Culture Collection (ATCC, Manassas, VA, USA: 30-2002). The medium was supplemented with 10% fetal bovine serum (FBS) (Hyclone, Logan, UT, USA), and 100 U/mL penicillin, 100 μg/mL streptomycin (Thermo fisher Scientific). The pcDNA5/FRT plasmid containing the human NTCP open reading frame with a C-terminal 6-His tag was used to generate a stable NTCP-expressing cell line using hygromycin selection. A single clone was isolated using a cloning cylinder and cultivated in the above DMEM with the addition of 500 μg/mL hygromycin (Thermo Fisher Scientific). For transport experiments, cells were plated on poly-D-lysine-coated 24-well plates at 300,000 cells per well for uptake experiments after 48 h or at 200,000 cells per well for uptake experiments after 72 h. Uptake experiments and LC-MS/MS analysis were performed at the time points indicated in the figure legends as previously described.
Figure 3. Kinetics of taurocholate uptake in the absence and presence of PFOA, PFNA, and PFDA. Uptake of increasing concentrations of [^3H]-taurocholate into NTCP-expressing HEK293 cells was measured for 15 s (within the initial linear rate) at 37 °C in a sodium-containing buffer in the absence or presence of 10 and 100 μM of (A) PFOA, (B) PFDA, or (C) PFNA. After correction for protein, the results were analyzed using GraphPad Prism V9 using the “Enzyme kinetics–Inhibition” equations. […] Mean ± SD values of two independent experiments performed in triplicate are shown.

[2] = parameters: method as in PMID 33201517, PMID 18353799; conditions: laboratory rodents; cited from earlier work
[3] = humans; cited from earlier work
[4] = target: T1, human Na+/taurocholate cotransporting polypeptide (NTCP); experiment: Inhibition of NTCP-mediated [3H]-taurocholate uptake in NTCP-expressing HEK293 cells; assay type: cell-based; conditions: for statistically significant inhibition of taurocholate uptake / inhibition of NTCP-mediated taurocholate uptake: 10 μM PFCA; for statistically significant inhibition of taurocholate uptake: 1 μM taurocholate, p < 0.05 vs control; for IC50 / inhibition of NTCP-mediated taurocholate uptake: 1 μM [3H]-taurocholate, 1 min, 37 °C; for IC50: sodium-containing buffer, 3 independent experiments; for inhibition of NTCP-mediated taurocholate uptake: NTCP-HEK293
Procedure: as §1
To investigate whether PFCAs would interact with the human Na^+/taurocholate cotransporting polypeptide (NTCP), we determined to what extent perfluorinated carboxylic acids with chain lengths from 3 to 18 carbon atoms (C3 to C18) would inhibit NTCP-mediated taurocholate uptake. For these experiments, we measured the uptake of 1 μM taurocholate in the presence and absence of 10 or 100 μM of each of the PFCAs.
Figure 1. […] Uptake was measured in sodium-containing (NaCl) or sodium-free (ChCl) buffer for 1 min at 37 °C and corrected for protein. Uptake then was normalized to control (NaCl) and individual values of 1 or 2 experiments performed in triplicates are presented. Bars represent the mean ± SD, asterisks indicate significant differences to the control (NaCl) at p < 0.05.
For these experiments, NTCP-mediated uptake of 1 μM taurocholate was measured in the absence and presence of increasing concentrations of perfluorinated compounds. For PFOA and PFNA, the concentrations ranged from 0.1 to 1000 μM, while the concentrations for PFDA were between 0.1 and 100 μM, due to solubility limitations.
Figure 2. […] Uptake of 1 μM [^3H]-taurocholate was measured into NTCP-expressing HEK293 cells in the absence or presence of increasing concentrations of (A) perfluorooctanoic acid (PFOA), (B) perfluorononanoic acid (PFNA), or (C) perfluorodecanoic acid (PFDA). Uptake was measured for 1 min at 37 °C in a sodium-containing buffer and corrected for protein. After conversion of the data to percent of control, IC50 values were calculated using GraphPad Prism V9 using the “One site-Fit logIC50” equation from 3 independent experiments performed in triplicates. The 95% confidence intervals are given in parentheses.

human NTCP = target: T2, human NTCP (Homo sapiens, UniProt Q14973); experiment: Sodium-dependent NTCP-mediated uptake of PFCAs into NTCP-expressing HEK293 cells (LC-MS/MS); assay type: in vitro ADME; conditions: for transport by NTCP (substrate, words): sodium-dependent uptake in NTCP-HEK293
T2 construct: containing the human NTCP open reading frame with a C-terminal 6-His tag; expressed in transfected cells
T2 sequence (Q14973 1-349): T1 sequence (Q14973 1-349)
Procedure: as §1
To resolve whether PFOA, PFNA, and PFDA were substrates of NTCP, we measured the transport of these compounds. […] To better characterize this transport, we wanted to perform kinetics experiments and determine the Km and Vmax values for the three compounds. Therefore, in Figure 4, we determined the initial linear rate conditions in which to perform the kinetics experiments. We evaluated the time-dependent uptake of PFOA, PFNA, and PFDA at 10 and 300 μM in NTCP-expressing HEK293 cells in sodium-containing and sodium-free buffer. While there is a time-dependent uptake of all three PFCAs, most likely due to organic anion transporters expressed in HEK293 cells, NTCP only transports its substrates in the presence of sodium. Therefore, we calculated the net sodium-dependent uptake. Based on the time-dependent sodium-dependent uptake results shown in Figure 4, we used 20 s for PFOA (Figure 4A), 30 s for PFNA (Figure 4B), and 1 min for PFDA (Figure 4C) to perform the concentration-dependent uptake kinetics.
Figure 4. Time dependency of NTCP-mediated PFOA, PFNA, and PFDA uptake. Uptake of (A) perfluorooctanoic acid (PFOA), (B) perfluorononanoic acid (PFNA), or (C) perfluorodecanoic acid (PFDA) was measured in NTCP-expressing HEK293 cells in sodium-containing (NaCl; solid lines) or sodium-free (ChCl; dotted lines) buffer at the indicated times at 37 °C and corrected for protein. The net sodium-dependent uptake (net; dashed lines) is also shown. The results are presented as means ± SD of two combined independent experiments performed in triplicates.
For the concentration-dependent uptake of […], we were limited by solubility and could only determine uptake up to a concentration of 1 mM. […] Therefore, no kinetic constants could be calculated for PFDA.
Figure 5. Kinetics of NTCP-mediated PFOA and PFNA uptake. Uptake of increasing concentrations of (A) perfluorooctanoic acid (PFOA) or (B) perfluorononanoic acid (PFNA) was measured at 37 °C for 20 (PFOA) or 30 s (PFNA) in NTCP-expressing HEK293 cells in sodium-containing or sodium-free buffer and corrected for protein. Net uptake was calculated by subtracting uptake in the sodium-free medium from uptake in the sodium-containing medium. Values are mean ± SD of three independent experiments parformed in triplicates. Curves were fit using the Michaelis–Menten equation in GraphPad Prism V9.

NTCP = system: NTCP; parameters: method as in PMID 26001962; conditions: perfluoroalkyl sulfonates, previously obtained; cited from earlier work
[5] = parameters: method as in PMID 33201517; conditions: laboratory mice and non-human primates; cited from earlier work
[6] = competitive inhibition fit, taurocholate uptake 15 s, 37 °C, 0, 10 and 100 μM PFCA, table: 95% CI in parentheses, read-out: Ki
[7] = in presence of 10 μM PFCA, 95% CI in parentheses
[8] = in presence of 100 μM PFCA, 95% CI in parentheses

SMILES | Vmax of taurocholate uptake [1, 7] | Vmax of taurocholate uptake [1, 8] | type of inhibition of NTCP-mediated taurocholate uptake [1] | transport by NTCP (substrate, words) (human NTCP) | IC50 [4] [µM] | Km (NTCP) [µM] | further results
C[C@H](CCC(=O)NCCS(=O)(=O)O)[C@H]1CC[C@H]2[C@@H]3[C@H](O)C[C@@H]4C[C@H](O)CC[C@]4(C)[C@H]3C[C@H](O)[C@]12C [taurocholate, reference compound] | – | – | – | – | – | – | Vmax of taurocholate uptake ([1]; concentration of PFCA 0 (control of each PFCA series), 95% CI in parentheses): 2.9 (2.7–3.2) nmol/mg·min and 3.2 (2.9–3.4) nmol/mg·min and 3.5 (3.2–3.8) nmol/mg·min; Km ([1]; concentration of PFCA 0 (control of each PFCA series), 95% CI in parentheses, read-out: Km of taurocholate uptake): 12 µM and 16 µM
O=C(O)C(F)(F)C(F)(F)C(F)(F)F [PFBA, perfluorobutanoic acid] | – | – | – | – | – | – | serum elimination half-life [2]: a few hours; serum elimination half-life [3]: a few days
O=C(O)C(F)(F)C(F)(F)C(F)(F)C(F)(F)C(F)(F)C(F)(F)C(F)(F)C(F)(F)C(F)(F)C(F)(F)F [perfluoroundecanoic acid] | – | – | – | – | – | – | statistically significant inhibition of taurocholate uptake [4]: statistically significant inhibitors at 10 μM, but to a lesser extent
O=C(O)C(F)(F)C(F)(F)C(F)(F)C(F)(F)C(F)(F)C(F)(F)C(F)(F)C(F)(F)C(F)(F)F [PFDA, Perfluorodecanoic acid] | 3.2 (3.0–3.4) nmol/mg·min | 2.5 (2.2–3.0) nmol/mg·min | competitive inhibitors | can transport | 9.5 | – | Ki [1, 6]: 8.3 µM; saturation of sodium-dependent uptake (human NTCP; concentration range tested up to 300 mM (so in the source), 1 min): did not reach saturation; inhibition of NTCP-mediated taurocholate uptake [4]: 60–70%
O=S(=O)(O)C(F)(F)C(F)(F)C(F)(F)C(F)(F)C(F)(F)C(F)(F)C(F)(F)C(F)(F)F [PFOS, perfluorooctane sulfonate] | – | – | – | – | – | 130 | –
O=S(=O)(O)C(F)(F)C(F)(F)C(F)(F)C(F)(F)C(F)(F)C(F)(F)F [PFHxS, perfluorohexane sulfonate] | – | – | – | – | – | 112 | –
O=C(O)C(F)(F)C(F)(F)C(F)(F)C(F)(F)C(F)(F)C(F)(F)C(F)(F)C(F)(F)F [PFNA, perfluorononanoic acid] | 3.5 (3.2–3.7) nmol/mg·min | 3.1 (2.5–4.1) nmol/mg·min | competitive inhibitors | can transport | 7.5 | – | Ki [1, 6]: 12.3 µM and 12 µM; Vmax of sodium-dependent NTCP-mediated PFCA uptake (human NTCP; net sodium-dependent uptake, 37 °C, 20 s (PFOA) or 30 s (PFNA)): 670 ± 391 nmol/mg/min; Km (human NTCP; net sodium-dependent uptake, 37 °C, 20 s (PFOA) or 30 s (PFNA), PFNA value a rough estimate, saturation not reached, read-out: Km of sodium-dependent NTCP-mediated PFCA uptake): 5300 ± 3500 µM; inhibition of NTCP-mediated taurocholate uptake [4]: 60–70%
O=S(=O)(O)C(F)(F)C(F)(F)C(F)(F)C(F)(F)F [PFBS, perfluorobutane sulfonate] | – | – | – | – | – | 39.6 | –
O=C(O)C(F)(F)C(F)(F)C(F)(F)C(F)(F)C(F)(F)C(F)(F)C(F)(F)F [PFOA, perfluorooctanoic acid] | 3.0 (2.8–3.2) nmol/mg·min | 2.8 (2.6–3.1) nmol/mg·min | competitive inhibitors | can transport | 28 | – | Ki [1]: 17 µM; Ki value lower than Km value (human NTCP; Ki (taurocholate uptake inhibition) versus Km (own transport)): about 100 fold; statistically significant inhibition of taurocholate uptake [4]: statistically significant inhibitors at 10 μM, but to a lesser extent; serum elimination half-life [5]: days to weeks; serum elimination half-life [3]: several years

— paper PMC8562773, “Perfluoroalkyl Carboxylic Acids Interact with the Human Bile Acid Transporter NTCP” (Livers, 2021)
